The values below come from patent US20120028995A1, “NOVEL COMPOUNDS FOR MEDICAL USE AS PEPTIDASE EFFECTORS” (IMTM GMBH, priority 2010, published 2012).

Each structure is given as a SMILES string. Where two headings read alike, the source gives them in different places.

The target in experiment [1] is T1, purified, recombinant human DPIV (Homo sapiens, UniProt P27487).
T1 construct: made in house; host or cells: Sf9 insect cells
Description: Inhibition of enzymatic activity of DPIV (fluorogenic substrate hydrolysis). The format is biochemical. Particulars: highest test item concentration 25 μM; for IC50: read-out: meas. IC50 (DPIV). The method, boiled down:
(§1)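 Recombinant human DPIV (Sf9-derived, approx. 1 nM) and recombinant DP8/DP9 in 0.05M Tris/HCl pH 7.5 with 0.05% Triton, 0.05% BSA, 2 mM MgCl2. Substrates were Gly-Pro-AMC at 50 μM (ex 380/em 460 nm, read at 0–120 min) or (Ala-Pro)2-R110 at 1 μM (ex 488/em 530 nm). IC50 from ≥16 log2 dilutions, top 25 μM.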

Experiment [2] addresses T2, aminopeptidase N (APN), purified recombinant human enzyme (Homo sapiens, UniProt P15144).
T2 construct: made in house; host or cells: ECV cells (transfected)
Description: Inhibition of enzymatic activity of aminopeptidase N (fluorogenic substrate hydrolysis). It is filed as biochemical. Particulars: highest test item concentration 25 μM. The method, boiled down:
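Recombinant human APN from transfected ECV cells was used at approx. 1 nM final, in 0.05M TRIS/HCl pH 7.5 with 0.05% Triton, 0.05% BSA and 2 mM MgCl2. Fluorescence release was read from H-Ala-AMC (50 μM) or (Ala-)2-R110 (1 μM). IC50 values came from at least 16 log2 dilutions starting at 25 μM top concentration.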

The subject of experiment [3] is purified, recombinant DP8 and DP9. Description: Inhibition of enzymatic activity of DP8/9. The format is biochemical. Particulars: highest test item concentration 25 μM; for IC50: read-out: meas. IC50 (DP8/9). The method, boiled down:
as §1

Experiment [4] deals with T3, cytosolic aminopeptidase (cAAP) purified from Jurkat cells (Homo sapiens, UniProt P55786).
T3 construct: The cytosolic aminopeptidase (cAAP) was purified from Jurkat cells; endogenous in cells; host or cells: Jurkat cells (enzyme purified from them)
T3 sequence (P55786 whole entry): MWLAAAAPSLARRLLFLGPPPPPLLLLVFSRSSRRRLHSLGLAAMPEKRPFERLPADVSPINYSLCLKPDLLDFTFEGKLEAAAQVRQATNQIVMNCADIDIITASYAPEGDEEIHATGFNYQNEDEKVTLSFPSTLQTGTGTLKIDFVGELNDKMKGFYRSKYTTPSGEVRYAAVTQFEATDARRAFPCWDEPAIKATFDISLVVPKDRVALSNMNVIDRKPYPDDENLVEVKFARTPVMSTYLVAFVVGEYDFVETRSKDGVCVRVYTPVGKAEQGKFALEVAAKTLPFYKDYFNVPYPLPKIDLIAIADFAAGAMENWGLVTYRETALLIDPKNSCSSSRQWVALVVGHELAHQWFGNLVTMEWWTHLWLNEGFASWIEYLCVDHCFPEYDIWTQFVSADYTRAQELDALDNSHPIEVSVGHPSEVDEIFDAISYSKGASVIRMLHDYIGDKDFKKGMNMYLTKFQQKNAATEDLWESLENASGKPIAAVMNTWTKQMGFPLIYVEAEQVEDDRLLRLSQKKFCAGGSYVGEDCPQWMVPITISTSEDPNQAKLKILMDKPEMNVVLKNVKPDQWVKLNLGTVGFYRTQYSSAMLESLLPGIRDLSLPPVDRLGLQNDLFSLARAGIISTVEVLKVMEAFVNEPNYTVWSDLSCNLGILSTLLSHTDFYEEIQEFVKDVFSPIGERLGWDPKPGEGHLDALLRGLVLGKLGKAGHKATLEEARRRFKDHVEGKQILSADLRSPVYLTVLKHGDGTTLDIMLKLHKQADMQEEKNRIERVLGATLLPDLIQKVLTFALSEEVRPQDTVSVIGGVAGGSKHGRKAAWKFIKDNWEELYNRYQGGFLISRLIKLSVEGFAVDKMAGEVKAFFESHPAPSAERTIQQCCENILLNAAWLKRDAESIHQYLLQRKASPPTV
In words: Inhibition of enzymatic activity of cytosolic aminopeptidase (cAAP). The format is biochemical. To be noted: highest test item concentration 25 μM; for IC50: read-out: meas. IC50 (cAAP).

Another experiment concerns T lymphocytes (T cells). Description: Suppression of DNA synthesis of PHA-stimulated T lymphocytes. The format is cell-based. Particulars: T-cell, tritium thymidine incorporation, read-out: Supp. DNA Synt. T-cell IC50. The method, boiled down:
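Healthy-donor PBMC and nylon-wool-purified T cells in serum-free AIMV medium were stimulated 48 h with 1 µg/ml PHA, with compound (0.1–250 µM) present throughout. IC50 was estimated graphically from proliferation relative to PHA-activated T cells without compound.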
(Uptake of a labelled nucleoside into DNA is a usual measure of proliferation.)

The test system of another experiment is NHEK cells. Description: Inhibition of DNA synthesis and proliferation of normal human epidermal keratinocytes (NHEK). To be noted: Homo sapiens, EGF-stimulated NHEK, BrdU incorporation, read-out: Supp. DNA Synt. NHEK IC50. The format is cell-based. The method, boiled down:
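Primary human keratinocytes were grown 48 h in serum-free medium with EGF and pituitary extract, with compounds at 0.1–100 μM. DNA synthesis was measured by BrdU incorporation ELISA relative to untreated controls (100%), and IC50 was derived graphically.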

A further experiment has as its system SZ95 cells. In words: Inhibition of DNA synthesis and proliferation of immortalized human sebocytes SZ95. The format is cell-based. To be noted: Homo sapiens, EGF-stimulated SZ95 sebocytes, tritium thymidine incorporation; read-out: Supp. DNA Synt. SZ95 IC50. In outline:
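EGF-stimulated SZ95 sebocytes in serum-free Sebomed Complete, treated with test items at 0.1–100 μM. DNA synthesis read by 3H-thymidine incorporation (beta counting), expressed relative to untreated cells (100%). IC50 for proliferation suppression derived graphically.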

T2 sequence (P15144 whole entry): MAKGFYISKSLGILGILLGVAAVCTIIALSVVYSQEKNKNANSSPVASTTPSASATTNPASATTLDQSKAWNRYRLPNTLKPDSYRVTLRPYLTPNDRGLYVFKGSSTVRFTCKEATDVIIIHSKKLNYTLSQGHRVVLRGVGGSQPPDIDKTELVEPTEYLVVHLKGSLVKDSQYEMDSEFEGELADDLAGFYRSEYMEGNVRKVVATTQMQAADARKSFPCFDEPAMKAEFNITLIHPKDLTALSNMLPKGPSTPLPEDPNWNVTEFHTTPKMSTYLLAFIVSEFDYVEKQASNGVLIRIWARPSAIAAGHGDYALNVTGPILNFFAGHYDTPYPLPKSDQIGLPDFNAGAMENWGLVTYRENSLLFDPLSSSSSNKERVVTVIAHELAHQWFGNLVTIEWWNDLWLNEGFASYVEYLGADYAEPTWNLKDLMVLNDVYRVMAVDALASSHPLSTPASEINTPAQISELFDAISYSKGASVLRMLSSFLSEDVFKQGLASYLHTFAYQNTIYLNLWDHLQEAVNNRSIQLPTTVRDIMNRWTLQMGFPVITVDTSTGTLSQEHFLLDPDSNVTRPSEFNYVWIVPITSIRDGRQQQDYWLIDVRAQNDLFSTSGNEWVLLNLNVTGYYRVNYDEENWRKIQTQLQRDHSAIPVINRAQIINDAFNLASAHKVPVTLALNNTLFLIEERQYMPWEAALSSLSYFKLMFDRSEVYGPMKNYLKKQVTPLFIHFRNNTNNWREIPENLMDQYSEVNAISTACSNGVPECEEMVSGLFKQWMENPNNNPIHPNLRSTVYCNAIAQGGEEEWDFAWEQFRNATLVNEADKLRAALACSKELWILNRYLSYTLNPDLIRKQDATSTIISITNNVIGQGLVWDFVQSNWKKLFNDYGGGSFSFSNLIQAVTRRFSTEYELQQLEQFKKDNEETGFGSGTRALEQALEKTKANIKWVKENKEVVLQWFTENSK
T1 sequence (P27487 whole entry): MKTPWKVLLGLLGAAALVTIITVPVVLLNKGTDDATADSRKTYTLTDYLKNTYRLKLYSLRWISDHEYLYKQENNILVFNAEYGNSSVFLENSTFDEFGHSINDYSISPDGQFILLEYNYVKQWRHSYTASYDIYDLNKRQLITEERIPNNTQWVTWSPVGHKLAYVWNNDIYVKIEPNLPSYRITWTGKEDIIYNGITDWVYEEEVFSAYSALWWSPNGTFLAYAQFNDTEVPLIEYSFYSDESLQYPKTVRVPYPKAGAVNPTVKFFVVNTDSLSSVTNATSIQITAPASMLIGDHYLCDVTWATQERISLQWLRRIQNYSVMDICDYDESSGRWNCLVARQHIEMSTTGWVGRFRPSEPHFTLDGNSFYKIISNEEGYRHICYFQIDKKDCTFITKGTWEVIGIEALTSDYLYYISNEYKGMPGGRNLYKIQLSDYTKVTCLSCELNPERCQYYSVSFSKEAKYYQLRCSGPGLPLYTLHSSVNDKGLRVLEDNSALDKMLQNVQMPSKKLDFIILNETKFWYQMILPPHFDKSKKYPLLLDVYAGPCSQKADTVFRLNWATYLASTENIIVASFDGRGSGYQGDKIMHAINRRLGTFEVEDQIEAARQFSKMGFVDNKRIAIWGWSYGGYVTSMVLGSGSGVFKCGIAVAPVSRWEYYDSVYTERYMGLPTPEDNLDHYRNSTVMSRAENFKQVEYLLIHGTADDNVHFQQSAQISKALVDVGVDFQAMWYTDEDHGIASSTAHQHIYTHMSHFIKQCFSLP

For the compound `CC(C)(C)OC(=O)NC(CNC(=O)c1cccc(NC(=O)C(O)C(COCc2ccccc2)NC(=O)OC(C)(C)C)c1)Cc1cc(F)ccc1F` (stereo not drawn) [Compound C19.015], in experiment [1], the “meas. IC50 (DPIV)” value is on record as “no in- hibition”. Besides, in experiment [2], the “meas. IC50 (APN)” value is given as “no in- hibition”. Further, the “meas. IC50 (DP8/9)” value in experiment [3] was “no in- hibition”. The “meas. IC50 (cAAP)” value in experiment [4] is given as “no in- hibition”. Besides, the IC50 in the experiment with T lymphocytes (T cells) (Homo sapiens, 48 h) is 8 µM; in the experiment with NHEK cells (NHEK, 48 h) it was 15.9 µM; with SZ95 cells it was 5.75 µM.

In the case of `CCCC(=O)OC(C(=O)Nc1cccc(C(=O)NCC(Cc2cc(F)ccc2F)NC(=O)OC(C)(C)C)c1)C(COCc1ccccc1)NC(=O)OC(C)(C)C` (stereo not drawn) [Compound C19.005], the “meas. IC50 (DPIV)” value in experiment [1] is “no in- hibition”. Also, the “meas. IC50 (APN)” value in experiment [2] was “no in- hibition”. The “meas. IC50 (DP8/9)” value in experiment [3] is listed as “no in- hibition”. Further, the IC50 was found to be 5.7 µM in experiment [4]; 11.5 µM in the experiment with T lymphocytes (T cells) (Homo sapiens, 48 h); 3.65 µM in the experiment with NHEK cells (NHEK, 48 h); 10.7 µM with SZ95 cells.

Take `CCCCCCCCCCCCCC(=O)NC(CC(=O)NCC(C)(C)CNC(=O)C(O)C(COCc1ccccc1)NC(=O)CCCCCCCCCCCCC)Cc1cc(F)ccc1F` (stereo not drawn) [Compound C19.011]: the “meas. IC50 (DPIV)” value in experiment [1] is on record as “no in- hibition”. For the same compound, in experiment [2], the “meas. IC50 (APN)” value is “no in- hibition”. Also, the “meas. IC50 (DP8/9)” value in experiment [3] is recorded as “no in- hibition”. For the same compound, the “meas. IC50 (cAAP)” value in experiment [4] is on record as “no in- hibition”. Besides, the IC50 in the experiment on T lymphocytes (T cells) (Homo sapiens, 48 h) was 168 µM; in the experiment on NHEK cells (NHEK, 48 h), no less than 110 µM; in the experiment with SZ95 cells it was no less than 155 µM.

As to `NC(CCCCNC(=O)C(O)C(N)Cc1ccccc1)C(=O)N1CCSC1` (stereo not drawn) [Compound C21.001], the IC50 in experiment [1] is 0.11 µM; in experiment [2] (read-out: meas. IC50 (APN)), 0.178 µM; in experiment [3], 0.02 µM; in experiment [4] it was 0.066 µM; in the experiment on T lymphocytes (T cells) (Homo sapiens, 48 h), 90.1 µM; in the experiment on NHEK cells (NHEK, 48 h) it was 77 µM. The IC50 with SZ95 cells turned out to be 65.5 µM.

For `CC(C)(C)OC(=O)NC(CCCCNC(=O)c1cccc(NC(=O)C(O)C(Cc2ccccc2)NC(=O)OC(C)(C)C)c1)C(=O)N1CCSC1` (stereo not drawn) [Compound C21.004], the “meas. IC50 (DPIV)” value in experiment [1] is reported as “no in- hibition”. The “meas. IC50 (APN)” value in experiment [2] is “no in- hibition”. In addition, in experiment [3], the “meas. IC50 (DP8/9)” value is reported as “no in- hibition”. Further, in experiment [4], the “meas. IC50 (cAAP)” value was “no in- hibition”. In addition, the IC50 is 12 µM in the experiment on T lymphocytes (T cells) (Homo sapiens, 48 h); 13.9 µM with NHEK cells (NHEK, 48 h); 19.4 µM in the experiment with SZ95 cells.

`CC(C)(CNC(=O)CC(Cc1cc(F)ccc1F)Nc1ccc([N+](=O)[O-])c2nonc12)CNC(=O)C(O)C(COCc1ccccc1)Nc1ccc([N+](=O)[O-])c2nonc12` (stereo not drawn) [Compound C19.030]: the “meas. IC50 (DPIV)” value in experiment [1] is “No in- hibition”. For the same compound, the “meas. IC50 (APN)” value in experiment [2] was “no in- hibition”. The “meas. IC50 (DP8/9)” value in experiment [3] was “no in- hibition”. For the same compound, the “meas. IC50 (cAAP)” value in experiment [4] is reported as “no in- hibition”. Moreover, the IC50 came out at 18.2 µM in the experiment with T lymphocytes (T cells) (PHA-stimulated human T cells, 48 hours); 7.55 µM in the experiment on NHEK cells (48 hours); 29.7 µM in the experiment on SZ95 cells.

In the case of `CC(C)(CNC(=O)CC(N)Cc1cc(F)ccc1F)CNC(=O)C(O)C(COCc1ccccc1)NC(=O)OC(C)(C)C` (stereo not drawn) [Compound C19.028], the IC50 in experiment [1] was found to be 0.17 µM; in experiment [3], 1.4 µM; in the experiment with T lymphocytes (T cells) (Homo sapiens, 48 h) it was 9 µM; in the experiment on NHEK cells (NHEK, 48 h) it was 31.4 µM; with SZ95 cells, 49.4 µM. The “meas. IC50 (APN)” value in experiment [2] was “no in- hibition”. Also, the “meas. IC50 (cAAP)” value in experiment [4] is on record as “no in- hibition”.

Regarding `CCCCCCCC(=O)NC(CC(=O)NCC(C)(C)CNC(=O)C(O)C(COCc1ccccc1)NC(=O)CCCCCCC)Cc1cc(F)ccc1F` (stereo not drawn) [Compound C19.010], the “meas. IC50 (DPIV)” value in experiment [1] is recorded as “no in- hibition”. In addition, the “meas. IC50 (APN)” value in experiment [2] is listed as “no in- hibition”. Also, in experiment [3], the “meas. IC50 (DP8/9)” value was “no in- hibition”. Besides, the IC50 in experiment [4] came to 3.5 µM; in the experiment on T lymphocytes (T cells) (Homo sapiens, 48 h), 7.6 µM; with NHEK cells (NHEK, 48 h), 48.1 µM; in the experiment with SZ95 cells, 12.2 µM.

Consider `CCCCCCCC(=O)OC(C(=O)NCC(C)(C)CNC(=O)CC(Cc1cc(F)ccc1F)NC(=O)OC(C)(C)C)C(COCc1ccc(OC)cc1)NC(=O)OC(C)(C)C` (stereo not drawn) [Compound C19.007], for which the “meas. IC50 (DPIV)” value in experiment [1] is given as “no in- hibition”. Moreover, the “meas. IC50 (APN)” value in experiment [2] is on record as “no in- hibition”. The “meas. IC50 (DP8/9)” value in experiment [3] was “no in- hibition”. Further, the “meas. IC50 (cAAP)” value in experiment [4] is given as “no in- hibition”. The IC50 was 78.6 µM in the experiment with T lymphocytes (T cells) (Homo sapiens, 48 h); no less than 120 µM with NHEK cells (NHEK, 48 h); 56.8 µM in the experiment with SZ95 cells.
